# Patent publication US10669240B2, “5-substituted indazole-3-carboxamides and preparation and use thereof” (Samumed, LLC, priority 2014, dated 2020)
# Biological target: DYRK1A (Homo sapiens (Human), UniProt Q13627)
# Test: DYRK1A activity Tau assay: pSer396 Tau in SH-SY5Y cells by ELISA / western blot
# Type: cell-based
# Conditions: overnight (16-18 h) exposure
row,SMILES,EC50
1,"O=C(NCCN1CCOCC1)c1n[nH]c2ccc(-c3cccc(F)c3F)cc12 [Compound 1268, 5-(2,3-Difluorophenyl)-N-(2-morpholinoethyl)-1H-indazole-3-carboxamide]",0.023 µM
2,"CCN1CCC(NC(=O)c2n[nH]c3ccc(-c4cncc5ccccc45)cc23)CC1 [Compound 1292, N-(1-Ethylpiperidin-4-yl)-5-(isoquinolin-4-yl)-1H-indazole-3-carboxamide]",0.074 µM
3,"CC(C)NC(=O)c1n[nH]c2cc(F)c(-c3cncc(F)c3)cc12 [Compound 1251, 6-Fluoro-5-(5-fluoropyridin-3-yl)-N-isopropyl-1H-indazole-3-carboxamide]",0.045 µM
4,"O=C(Nc1ccc(CN2CCCC2)cc1)c1n[nH]c2cc(F)c(-c3cccnc3)cc12 [Compound 1345, 6-Fluoro-5-(pyridin-3-yl)-N-(4-(pyrrolidin-1-ylmethyl)phenyl)-1H-indazole-3-carboxamide]",0.022 µM
5,"CCC(CC)NC(=O)c1n[nH]c2ccc(-c3cncc(N4CCCC4)c3)cc12 [Compound 1215, N-(Pentan-3-yl)-5-(5-(pyrrolidin-1-yl)pyridin-3-yl)-1H-indazole-3-carboxamide]",0.199 µM
6,"O=C(NC1CCCCC1)c1n[nH]c2ccc(-c3cc(CN4CCCCC4)cc(F)c3F)cc12 [Compound 217, N-Cyclohexyl-5-(2,3-difluoro-5-(piperidin-1-ylmethyl)phenyl)-1H-indazole-3-carboxamide]",0.036 µM
7,"O=C(NC1CCCCC1)c1n[nH]c2ccc(-c3cncnc3)cc12 [Compound 1281, N-Cyclohexyl-5-(pyrimidin-5-yl)-1H-indazole-3-carboxamide]",0.064 µM
8,"CC(C)NC(=O)c1n[nH]c2ccc(-c3cncc(CN4CCC4)c3)cc12 [Compound 128, 5-(5-(Azetidin-1-ylmethyl)pyridin-3-yl)-N-isopropyl-1H-indazole-3-carboxamide]",0.043 µM
9,"CN(C)Cc1cncc(-c2ccc3[nH]nc(C(=O)NC4(c5ccccc5)CC4)c3c2)c1 [Compound 37, 5-(5-((Dimethylamino)methyl)pyridin-3-yl)-N-(1-phenylcyclopropyl)-1H-indazole-3-carboxamide]",0.196 µM
10,"CC(C)NC(=O)c1n[nH]c2ccc(-c3cccc(F)c3F)cc12 [Compound 140, 5-(2,3-Difluorophenyl)-N-isopropyl-1H-indazole-3-carboxamide]",0.576 µM
11,"O=C(NC1CC1)c1n[nH]c2ccc(-c3cncc(CN4CCC4)c3)cc12 [Compound 1271, 5-(5-(Azetidin-1-ylmethyl)pyridin-3-yl)-N-cyclopropyl-1H-indazole-3-carboxamide]",0.019 µM
12,"O=C(Nc1cc(C(F)(F)F)ccn1)c1n[nH]c2ccc(-c3cccnc3)cc12 [Compound 41, 5-(Pyridin-3-yl)-N-(4-(trifluoromethyl)pyridin-2-yl)-1H-indazole-3-carboxamide]",0.118 µM
13,"CC(F)(F)CN1CCC(NC(=O)c2n[nH]c3ccc(-c4cncc(Cl)c4)cc23)CC1 [Compound 1302, 5-(5-Chloropyridin-3-yl)-N-(1-(2,2-difluoropropyl)piperidin-4-yl)-1H-indazole-3-carboxamide]",0.031 µM
14,"O=C(NC1CCN(CCF)CC1)c1n[nH]c2ccc(-c3cccnc3)cc12 [Compound 1180, N-(1-(2-Fluoroethyl)piperidin-4-yl)-5-(pyridin-3-yl)-1H-indazole-3-carboxamide]",0.006 µM
15,"CC(C)NC(=O)c1n[nH]c2ccc(-c3cncc(N4CCCC4)c3)cc12 [Compound 1245, N-Isopropyl-5-(5-(pyrrolidin-1-yl)pyridin-3-yl)-1H-indazole-3-carboxamide]",0.025 µM
16,"O=C(Nc1ccnc(N2CCCC2)c1)c1n[nH]c2ccc(-c3cccnc3)cc12 [Compound 102, 5-(Pyridin-3-yl)-N-(2-(pyrrolidin-1-yl)pyridin-4-yl)-1H-indazole-3-carboxamide]",0.004 µM
17,"CC(C)(F)CN1CCC(NC(=O)c2n[nH]c3ccc(-c4cccnc4F)cc23)CC1 [Compound 1320, N-(1-(2-Fluoro-2-methylpropyl)piperidin-4-yl)-5-(2-fluoropyridin-3-yl)-1H-indazole-3-carboxamide]",0.042 µM
18,"CC(C)(C)N1CCC(NC(=O)c2n[nH]c3ccc(-c4cncc(N5CCCC5)c4)cc23)CC1 [Compound 293, N-(1-(tert-Butyl)piperidin-4-yl)-5-(5-(pyrrolidin-1-yl)pyridin-3-yl)-1H-indazole-3-carboxamide]",0.022 µM
19,"O=C(NC1Cc2ccccc2C1)c1n[nH]c2ccc(-c3cccnc3)cc12 [Compound 22, N-(2,3-Dihydro-1H-inden-2-yl)-5-(pyridin-3-yl)-1H-indazole-3-carboxamide]",0.052 µM

row,SMILES,EC50
1,"O=C(NC1CC1)c1n[nH]c2ccc(-c3cncc(N4CCCC4)c3)cc12 [Compound 143, N-Cyclopropyl-5-(5-(pyrrolidin-1-yl)pyridin-3-yl)-1H-indazole-3-carboxamide]",0.01 µM
2,"CC#CCN1CCC(NC(=O)c2n[nH]c3ccc(-c4cccnc4)cc23)CC1 [Compound 369, N-(1-(But-2-yn-1-yl)piperidin-4-yl)-5-(pyridin-3-yl)-1H-indazole-3-carboxamide]",0.007 µM
3,"O=C(NC1Cc2ccccc2C1)c1n[nH]c2ccc(-c3cncc(CN4CCCCC4)c3)cc12 [Compound 24, N-(2,3-Dihydro-1H-inden-2-yl)-5-(5-(piperidin-1-ylmethyl)pyridin-3-yl)-1H-indazole-3-carboxamide]",0.015 µM
4,"O=C(Nc1cccc(C(F)(F)F)n1)c1n[nH]c2ccc(-c3cncc(CN4CCCCC4)c3)cc12 [Compound 62, 5-(5-(Piperidin-1-ylmethyl)pyridin-3-yl)-N-(6-(trifluoromethyl)pyridin-2-yl)-1H-indazole-3-carboxamide]",0.005 µM
5,"[2H]C([2H])(c1cncc(-c2ccc3[nH]nc(C(=O)Nc4cccnc4)c3c2)c1)N1CCCCC1 [Compound 63, 5-(5-(piperidin-1-ylmethyl-d2)pyridin-3-yl)-N-(pyridin-3-yl)-1H-indazole-3-carboxamide]",0.001 µM
6,"CC(C)NC(=O)c1n[nH]c2ccc(-c3cncc(CN4CCCCC4)c3)cc12 [Compound 131, N-Isopropyl-5-(5-(piperidin-1-ylmethyl)pyridin-3-yl)-1H-indazole-3-carboxamide]",0.01 µM
7,"CC(C)(C)CN1CCC(NC(=O)c2n[nH]c3ccc(-c4cncc(F)c4)cc23)CC1 [Compound 1315, 5-(5-Fluoropyridin-3-yl)-N-(1-neopentylpiperidin-4-yl)-1H-indazole-3-carboxamide]",0.87 µM
8,"CN1CCC(NC(=O)c2n[nH]c3ccc(-c4ccccc4)cc23)CC1 [Compound 14, N-(1-Methylpiperidin-4-yl)-5-phenyl-1H-indazole-3-carboxamide]",1.15 µM
9,"O=C(Nc1c(F)cncc1F)c1n[nH]c2ccc(-c3cncc(CN4CCCCC4)c3)cc12 [Compound 79, N-(3,5-Difluoropyridin-4-yl)-5-(5-(piperidin-1-ylmethyl)pyridin-3-yl)-1H-indazole-3-carboxamide]",0.001 µM
10,"CC(C)CNC(=O)c1n[nH]c2ccc(-c3cccnc3F)cc12 [Compound 1336, 5-(2-Fluoropyridin-3-yl)-N-isobutyl-1H-indazole-3-carboxamide]",0.022 µM
11,"CC[C@@H](C)NC(=O)c1n[nH]c2ccc(-c3cccnc3)cc12 [Compound 1257, (R)—N-(sec-butyl)-5-(pyridin-3-yl)-1H-indazole-3-carboxamide]",0.014 µM
12,"CC(C)(F)CN1CCC(NC(=O)c2n[nH]c3ccc(-c4cnccn4)cc23)CC1 [Compound 1319, N-(1-(2-Fluoro-2-methylpropyl)piperidin-4-yl)-5-(pyrazin-2-yl)-1H-indazole-3-carboxamide]",0.097 µM
13,"O=C(NCC1CC1)c1n[nH]c2ccc(-c3cncc(Cl)c3)cc12 [Compound 1323, 5-(5-Chloropyridin-3-yl)-N-(cyclopropylmethyl)-1H-indazole-3-carboxamide]",0.043 µM
14,"O=C(NC1CCOCC1)c1n[nH]c2ccc(-c3cccc(F)c3)cc12 [Compound 13, 5-(3-Fluorophenyl)-N-(tetrahydro-2H-pyran-4-yl)-1H-indazole-3-carboxamide]",0.332 µM
15,"O=C(NCCN1CCCCC1)c1n[nH]c2ccc(-c3cccc(F)c3F)cc12 [Compound 1266, 5-(2,3-Difluorophenyl)-N-(2-(piperidin-1-yl)ethyl)-1H-indazole-3-carboxamide]",0.075 µM
16,"CC(F)(F)CN1CCC(NC(=O)c2n[nH]c3ccc(-c4cccnc4)cc23)CC1 [Compound 1300, N-(1-(2,2-Difluoropropyl)piperidin-4-yl)-5-(pyridin-3-yl)-1H-indazole-3-carboxamide]",0.006 µM
17,"CC(C)(C)NC(=O)c1n[nH]c2ccc(-c3cncc(CN4CCC4)c3)cc12 [Compound 1206, 5-(5-(Azetidin-1-ylmethyl)pyridin-3-yl)-N-(tert-butyl)-1H-indazole-3-carboxamide]",0.207 µM
18,"CC(C)NC(=O)c1n[nH]c2ccc(-c3cncc(F)c3)cc12 [Compound 1250, 5-(5-Fluoropyridin-3-yl)-N-isopropyl-1H-indazole-3-carboxamide]",0.049 µM
19,"CC(C)NC(=O)c1n[nH]c2ccc(-c3cncnc3)cc12 [Compound 1248, N-Isopropyl-5-(pyrimidin-5-yl)-1H-indazole-3-carboxamide]",0.174 µM
